These are literature values, as cited in article PMC8198792, “Prediction of Anticancer Peptides with High Efficacy and Low Toxicity by Hybrid Model Based on 3D Structure of Peptides” (International Journal of Molecular Sciences, 2021).

Like-named read-outs stand apart in the source and are kept apart here.

The data set deals with cancer cell lines. Also noted: method as in 6 sources, ref CancerPPD [45] and SATPdb ||| ref CancerPPD/SATPdb ||| ref CancerPPD, SATPdb, Swissprot (PDB) ||| ref CancerPPD/SATPdb/Swissprot(PDB) ||| ref CancerPPD / SATPdb ||| ... To be noted: cited from earlier work. The source says: Supplement ijms-22-05630-s001.zip/ACPs(seguence).xlsx, sheet "D1" | column: Activity || Supplement ijms-22-05630-s001.zip/ACPs(seguence).xlsx, sheet "D2" | column: Activity || Supplement ijms-22-05630-s001.zip/ACPs(seguence).xlsx, sheet "D3" | column: Activity || (+ 2 further places)

[1] abbreviates: ACPs dataset D1, 1 = ACP (positive), 0 = non-ACP (negative), label taken from databases, ref CancerPPD [45] and SATPdb.
[2] abbreviates: ACPs dataset D4 (sheet "D4"), label 1 = ACP, experimentally validated ACPs, ref CancerPPD [45] and SATPdb.
Where [3] appears, read: ACPs dataset D5 (sheet "D5"), label 1 = ACP (positive set), sequences with CancerPPD/SATPdb ID, ref CancerPPD, SATPdb.
The mark [4] stands for this setting: ACPs dataset sheet D2, 1 = ACP (CancerPPD/SATPdb ID), 0 = non-ACP (Swissprot/PDB ID), ref CancerPPD, SATPdb, Swissprot (PDB).
Where [5] appears, read: ACPs dataset D1, label 1 = ACP, 0 = non-ACP (non-anticancer AMPs from SATPdb), ref CancerPPD/SATPdb.
The mark [6] stands for this setting: ACPs dataset D4 (sheet "D4"), label 1 = ACP (CancerPPD ID), 0 = non-ACP (non-anticancer AMP, SATPdb ID), ref CancerPPD [45] and SATPdb.
The mark [7] stands for this setting: ACPs dataset D2 (supplement ACPs(seguence).xlsx, sheet D2), dataset label 1/0 (ACP / non-ACP), entries identified by Swissprot(PDB ID), ref CancerPPD/SATPdb/Swissprot(PDB).
The mark [8] stands for this setting: ACPs dataset D5, sheet "D5", label 1 = ACP, 0 = non-ACP, ref CancerPPD [45] and SATPdb.
Where [9] appears, read: ACPs dataset D5 (sheet "D5"), label 1 = ACP (positive set), 0 = non-ACP (negative set), ref CancerPPD [45] and SATPdb.

For “LVPRGSRAGSPSGGPFCALARQPLTGARLMSGLFFALHET [satpdb15805]”, the Activity is reported as 1 under setting [1], 1 under setting [2], 1 under setting [3] and 1 under setting [4].

In the case of LVRGCWTKSYPPKPCFVR [satpdb11395], the Activity under setting [5] is recorded as 0 and the Activity under setting [6] is reported as 0.

For “MAELQERIRHFWKESRRAFLVTKKPNWATYKRAAKITGLGIILIGLIGMLIRIVGILILGG [3MP7 X-ray 2.90 B 1-61]”, the Activity under setting [7] is recorded as 0 and the Activity under setting [8] is 0.

Regarding “MAKWRCKICGYIYDEDEGDPDNGISPGTKFEDLPDDWVCPLCGAPKSEFERIE [1YK5 X-ray 1.79 A/B/C/D 1-53]”, the Activity was 0 under setting [7] and 0 under setting [8].

Regarding MASRAARLAARLARLALRAL [satpdb10584], the Activity under setting [1] was 0 and the Activity under setting [6] is listed as 0.

Take “MATAVYRCAKCGKEVELDLATAREVRCPYCGSKILYKPRPRVARRVKAI [4QIW X-ray 3.50 P/W 1-49]”: the Activity was 0 under setting [7] and 0 under setting [9].

Turning to “MDIYVCTVCGYEYDPAKGDPDSGIKPGTKFEDLPDDWACPVCGASKDAFEKQ [2DSX X-ray 0.68 A 1-52]”, the Activity under setting [7] is recorded as 0 and the Activity under setting [8] is listed as 0.

With “MDKVQYLTRSAIRRASTIEMPQQARQNLQNLFINFCLILICLLLICIIVMLL [4KYT X-ray 2.83 B/C 1-52]”, the Activity is listed as 0 under setting [7] and 0 under setting [8].

Take “MEKVQYLTRSAIRRASTIEMPQQARQNLQNLFINFCLILICLLLICIIVMLL [1N7L NMR - A 1-52]”: the Activity reads like this: under setting [7], 0; under setting [8], 0.

On to “MELVKVVFMGWFKNESMFTKEITMMKDDVQWATTQYAEVNKALVKAFIDDKKVCEVDCRG [5HY3 X-ray 3.10,B,1-60]”, for which the Activity reads like this: under setting [7], 0; under setting [8], 0.

With MEPECNLNCTD [satpdb10075], the Activity by setting is: under setting [1], 1; under setting [2], 1; under setting [3], 1; under setting [4], 1.

Take “MERSTRELCLNFTVVLITVILIWLLVRSYQY [3W5A X-ray 3.01 C 1-31]”: the Activity by setting is: under setting [9], 0; under setting [4], 0.

For “MESQSNAVQLMLGFGTFVLMLLGLVVELIKNSNKK [satpdb12625]”, the Activity runs as follows: under setting [5], 0; under setting [6], 0.

For MFFSSKKCKTVSKTFRGPCVRNA [satpdb11127], the Activity is, setting by setting: under setting [1], 0; under setting [6], 0.

With “MFSPILSLEIILALATLQSVFAQPVICTTVGSAAEGS [satpdb11835]”, the Activity is 1 under setting [1], 1 under setting [2], 1 under setting [3] and 1 under setting [4].

Regarding “MISDEQLNSLAITFGIVMMTLIVIYHAVDSTMSPKN [1RKL NMR - A 1-36]”, the Activity is given as 0 under setting [7] and 0 under setting [9].

As to “MITDVQLAIFANMLGVSLFLLVVLYHYVAVNNPKKQE [2LAT NMR - A 1-37]”, the Activity under setting [7] is on record as 0 and the Activity under setting [9] is on record as 0.

“MKFYTIKLPK FLGGIVRAML GSFRKD [2MVH NMR - A 1-26]”: the Activity runs as follows: under setting [9], 0; under setting [4], 0.

“MKNAKQEHFELDQEWVELMVEAKEANISPEEIRKYLLLNKKSAHPGPAARSHTVNPF [1B0N X-ray 1.90,B,1-57]”: the Activity by setting is: under setting [7], 0; under setting [8], 0.

Consider “MKVRSSVKKMCDNCKVVRRHGRVLVICSNVKHKQRQG [2ZJR X-ray 2.91,4,1-37]”, for which the Activity under setting [7] is 0 and the Activity under setting [9] is on record as 0.

With “MKVRVDADACIGCGVCENLCPDVFQLGDDGKAKVLQPETDLPCAKDAADSCPTGAISVEE [1VJW X-ray 1.75 A 1-60]”, the Activity runs as follows: under setting [7], 0; under setting [8], 0.

On to “MLELLKSLVFAVIMVPVVMAIILGLIYGLGEVFNIFSGVGKKDQPGQNH [4C48 X-ray 3.30,C,1-49]”, for which the Activity by setting is: under setting [7], 0; under setting [9], 0.

With MLQNSAVLLLLVISASA [satpdb10067], the Activity runs as follows: under setting [1], 1; under setting [2], 1; under setting [3], 1; under setting [4], 1.

Regarding “MNQGKIWTVVNPAIGIPALLGSVTVIAILVHLAILSHTTWFPAYWQGGVKKAA [1KZU X-ray 2.50 A/D/G 1-53]”, the Activity is 0 under setting [7] and 0 under setting [8].

With “MNQGKIWTVVPPAFGLPLMLGAVAITALLVHAAVLTHTTWYAAFLQGGVKKAA [1IJD X-ray 3.00 A/C/E 1-53]”, the Activity is given as 0 under setting [7] and 0 under setting [8].

For “MPCSCKKYCDPWEVIDGSCGLFNSKYICCREK [1EWS NMR - A 1-32]”, the Activity is, setting by setting: under setting [9], 0; under setting [4], 0.

Consider “MPQLVPFYFMNQLTYGFLLMITLLILFSQFFLPMILRLYVSRLFISKL [6B2Z electron microscopy 3.60,A/L,1-48]”, for which the Activity under setting [7] was 0 and the Activity under setting [9] is on record as 0.

Turning to MPTWAWWLFLVLLLALWAPARG [satpdb27488], the Activity is listed as 1 under setting [1], 1 under setting [2], 1 under setting [3] and 1 under setting [4].

With “MRKEFHNVLSSGQLLADKRPARDYNRK [compound 3072]”, the Activity reads like this: under setting [1], 1; under setting [2], 1; under setting [3], 1; under setting [4], 1.

On to “MRLKKRFKKFFISRKEYEKIEEILDIGLAKAMEETKDDELLTYDEIKELLGDK [3BPQ X-ray 2.20,A/C,1-52]”, for which the Activity is 0 under setting [7] and 0 under setting [8].

As to “MSAGVITGVL LVFLLLGYLV YALINAEAF [6HRA electron microscopy 3.70, D ,1-29]”, the Activity under setting [9] is reported as 0 and the Activity under setting [4] is 0.

In the case of “MSGELLNAALLSFGLIFVGWALGALLLKIQGAEE [4OGQ X-ray 2.50，F，1-34]”, the Activity is, setting by setting: under setting [9], 0; under setting [4], 0.

“MTEEMLYAALLSFGLIFVGWGLGVLLLKIQGAEKE [4I7Z X-ray 2.80,F,1-35]”: the Activity was 0 under setting [9] and 0 under setting [4].

Take “MVAYWRQAGLSYIRYSQICAKAVRDALKTEFKANAMKTSGSTIKIVKVKKE [2W6J X-ray 3.84,I,1-51]”: the Activity runs as follows: under setting [7], 0; under setting [8], 0.

On to “MVEPLLDGLVLGLVFATLGGLFYAAYQQYKRPNELGG [4I7Z X-ray 2.80 G 1-37]”, for which the Activity by setting is: under setting [7], 0; under setting [9], 0.

Regarding “MVEPLLSGIVLGLIVVTLAGLFYAAYKQYKRPNELGG [4OGQ X-ray 2.50,G,1-37]”, the Activity reads like this: under setting [7], 0; under setting [9], 0.

Turning to “MVQNDFVDSYDVTMLLQDDDGKQYYEYHKGLSLSDFEVLYGNTADEIIKLRLDKVL [2LE2 NMR - A/B 1-56]”, the Activity under setting [7] is given as 0 and the Activity under setting [8] is 0.

On to “MWKWFHNVLSWWWLLADKRPARDYNRK [compound 3074]”, for which the Activity runs as follows: under setting [1], 1; under setting [2], 1; under setting [3], 1; under setting [4], 1.
